Measured values published in US20240082273A1, “NEUROKININ INHIBITORS SUCH AS APREPITANT FOR TREATING NON SMALL CELL LUNG CARCINOMA OR BREAST CANCER WITHOUT MUTATIONS” (priority 2020, published 2024).

Key:
Format in all cases: cell-based, human
[1] = system: lung cancer cell lines with molecular profile EGFR−/ALK−/ROS1− (A549, H358, H441, H460, H520); experiment: MTT proliferation, NSCLC cell lines with EGFR−/ALK−/ROS1− profile; settings: for Mean proliferation: 48 hours
Excerpt: (§1) EGFR, ALK and ROS1 are key molecular factors that may be used to determine pathological classification, prognosis, therapeutics and behaviour in patients with lung cancer. EGFR, ALK and ROS1 are biomarkers routinely analysed in the clinical practice of the management of patients with NSCLC. NSCLC with molecular profile EGFR-/ALK-/ROS1- presents a better response to treatment with the NK1 inhibitor aprepitant, compared to lung cancer with different profiles (in particular, EGFR+/ALK-/ROS1- and EGFR-/ALK+/ROS1-, in which EGFR and ALK respectively contain mutations relative to their wild type gene). Commercial lines of lung cancer were used as shown in Table 2 together with their molecular profile. The molecular profile of the cancer cell lines was determined by sequencing and can be consulted in the Cancer Cell Line Encyclopaedia database of public access available at the url: https://portals.broadinstitute.org/ccle All cells were cultured in wells under vendor-recommended conditions and exposed to different concentrations of aprepitant for 48 hours. In each case a group of wells of cells were used to which no treatment was applied and which were considered as controls. At 48 hours the number of cells was measured. Eight cell lines of human were used for the study of NK1 inhibitors (Table 3). All of them were maintained in culture in their respective culture media (Gibco,Thermo Fisher Scientific) supplemented with 10% foetal bovine serum (FBS) (Gibco, Thermo Fisher Scientific), 2 mM L-Glutamine (Gln) (Sigma-Aldrich, Merk), and […] and […] Gibco, Thermo Fisher Scientific) in a humidified incubator at 37° C. and 5% CO2. Cell culture media used are Dulbecco's Modified Eagle Medium (DMEM), and RPMI Medium 1640 (RPMI-1640). To measure cell viability, the cytotoxicity of drugs in culture was evaluated using the 3-(4,5-Dimethyl-2-thiazolyl)-2,5-diphenyl-2H-tetrazolium bromide (MTT) reduction assay. This assay assesses cell viability through the indirect measurement of the activity of reductases that convert yellow soluble MTT into purple insoluble formazan salts. As MTT can only be reduced when these enzymes are active, the reaction is used as an indicator of the cell metabolic competence and, therefore, of viability. A variable number of cells (depending on the cell line) were seeded in 96 multi-well plates and grown during 24 hours. The following day, the culture medium was aspirated and fresh culture medium with the drug dissolved was added to the wells. After 24 hours or 48 hours cell viability was measurement by adding 10 μl of a 5 mg/ml MTT solution (M5655; Sigma-Aldrich) and 100 μl of HCl 0.01M-SDS 10% solution 4 hours later. After 24 hours, the absorbance was measured at 595 nm, using a multi-well plate reader (iMark, Bio-rad). Each condition was tested 5 times, obtaining 5 values of absorbance. All sample measurements were corrected using the blank (culture medium without cells) mean absorbance value, and normalized to positive control to determinate relative cell viability for each condition at 24 and 48 hours.

A549 = experiment: MTT proliferation, A549; settings: 48 hours
Excerpt: as §1

H358 = experiment: MTT proliferation, H358; settings: 48 hours
Excerpt: as §1

H520 = experiment: MTT proliferation, H520; settings: 48 hours
Excerpt: as §1

[2] = system: breast cancer cell lines ER−/PR−/HER2− (MDAMB231, MDAMB435, MDAMB468); experiment: MTT proliferation, breast cancer cell lines ER−/PR−/HER2−; settings: for Mean proliferation: 48 hours
Experimental: All cells were cultured in wells under vendor-recommended conditions and exposed to different concentrations of aprepitant for 48 hours. In each case a group of wells of cells were used to which no treatment was applied and which were considered as controls. At 48 hours the number of cells was measured. To measure cell viability, the cytotoxicity of drugs in culture was evaluated using the 3-(4,5-Dimethyl-2-thiazolyl)-2,5-diphenyl-2H-tetrazolium bromide (MTT) reduction assay. This assay assesses cell viability through the indirect measurement of the activity of reductases that convert yellow soluble MTT into purple insoluble formazan salts. As MTT can only be reduced when these enzymes are active, the reaction is used as an indicator of the cell metabolic competence and, therefore, of viability. A variable number of cells (depending on the cell line) were seeded in 96 multi-well plates and grown during 24 hours. The following day, the culture medium was aspirated and fresh culture medium with the drug dissolved was added to the wells. After 24 hours or 48 hours cell viability was measurement by adding 10 μl of a 5 mg/ml MTT solution (M5655; Sigma-Aldrich) and 100 μl of HCl 0.01M-SDS 10% solution 4 hours later. After 24 hours, the absorbance was measured at 595 nm, using a multi-well plate reader (iMark, Bio-rad). Each condition was tested 5 times, obtaining 5 values of absorbance. All sample measurements were corrected using the blank (culture medium without cells) mean absorbance value, and normalized to positive control to determinate relative cell viability for each condition at 24 and 48 hours.

C[C@@H](O[C@H]1OCCN(Cc2nc(=O)[nH][nH]2)[C@H]1c1ccc(F)cc1)c1cc(C(F)(F)F)cc(C(F)(F)F)c1 [Aprepitant]
inhibition at 5 µM ([1]; Homo sapiens, concentration of 5 μM, in most cell lines (FIG. 3)): ~20% | inhibition at 20 µM ([1]; Homo sapiens, concentration of 20 μM (FIG. 3), read-out: growth inhibition): 60% | Mean proliferation ([1]; aprepitant 1 μM): 98.09 | Mean proliferation ([1]; aprepitant 3 μM): 94.71 | Mean proliferation ([1]; aprepitant 5 μM): 72.82 | Mean proliferation ([1]; aprepitant 10 μM): 59.95 | Mean proliferation ([1]; aprepitant 20 μM): 42.37 | Mean proliferation ([1]; aprepitant 30 μM): 30.66 | Mean proliferation ([1]; aprepitant 40 μM): 18.72 | Mean proliferation ([1]; aprepitant 50 μM): 4.05 | Mean proliferation ([1]; aprepitant 60 μM): 4.40 | proliferation compared to control ([1]; concentration of 5 μM, in most cell lines (FIG. 3)): 80% | response to treatment versus EGFR+/ALK−/ROS1− and EGFR−/ALK+/ROS1− profiles ([1]; in vitro, Table 4 and FIG. 2): clearly improved response | Mean proliferation (A549; aprepitant 1 μM): 96.56 | Mean proliferation (A549; aprepitant 3 μM): 94.80 | Mean proliferation (A549; aprepitant 5 μM): 64.40 | Mean proliferation (A549; aprepitant 10 μM): 52.17 | Mean proliferation (A549; aprepitant 20 μM): 40.48 | Mean proliferation (A549; aprepitant 30 μM): 35.59 | Mean proliferation (A549; aprepitant 40 μM): 21.55 | Mean proliferation (A549; aprepitant 50 μM): 9.17 | Mean proliferation (A549; aprepitant 60 μM): 11.36 | Mean proliferation (H358; aprepitant 1 μM): 101.3 | Mean proliferation (H358; aprepitant 3 μM): 89.28 | Mean proliferation (H358; aprepitant 5 μM): 87.69 | Mean proliferation (H358; aprepitant 10 μM): 64.12 | Mean proliferation (H358; aprepitant 20 μM): 43.44 | Mean proliferation (H358; aprepitant 30 μM): 32.09 | Mean proliferation (H358; aprepitant 40 μM): 27.23 | Mean proliferation (H358; aprepitant 50 μM): 3.10 | Mean proliferation (H358; aprepitant 60 μM): 2.86 | Mean proliferation (H520; aprepitant 1 μM): 100.27 | Mean proliferation (H520; aprepitant 3 μM): 98.27 | Mean proliferation (H520; aprepitant 5 μM): 80.08 | Mean proliferation (H520; aprepitant 10 μM): 66.40 | Mean proliferation (H520; aprepitant 20 μM): 43.07 | Mean proliferation (H520; aprepitant 30 μM): 29.80 | Mean proliferation (H520; aprepitant 40 μM): 9.59 | Mean proliferation (H520; aprepitant 50 μM): 5.78 | Mean proliferation (H520; aprepitant 60 μM): −1.07 | inhibition at 20 µM ([2]; Homo sapiens, concentration of 20 μM (FIG. 5), read-out: growth inhibition): ~60% | Mean proliferation ([2]; aprepitant 0.3 μM): 98.63 | Mean proliferation ([2]; aprepitant 1 μM): 97.94 | Mean proliferation ([2]; aprepitant 3 μM): 98.98 | Mean proliferation ([2]; aprepitant 10 μM): 74.02 | Mean proliferation ([2]; aprepitant 20 μM): 42.89 | Mean proliferation ([2]; aprepitant 30 μM): 24.11 | Mean proliferation ([2]; aprepitant 40 μM): 7.53 | Mean proliferation ([2]; aprepitant 50 μM): 1.89 | Mean proliferation ([2]; aprepitant 60 μM): 6.77 | triple negative breast carcinoma proliferation in culture relative to ER+/PR+/HER2+, ER−/PR−/HER2+ and ER+/PR+/HER2− ([2]; dose dependent): reduces
